In paper PMC8948292, “Combining PEGylated mito-atovaquone with MCT and Krebs cycle redox inhibitors as a potential strategy to abrogate tumor cell proliferation” (Scientific Reports, 2022):

Experiments:
[1] = tested on: U87MG cells; test: Cell proliferation (cell confluence), IncuCyte Live-Cell Analysis System; assay type: cell-based, human; conditions: Mito-PEG5-ATO 0.15 µM, AZD-3965 600 µM
Description: (§1) The following cell lines were obtained from the American Type Culture Collection (Manassas, VA), where they were regularly authenticated: MiaPaCa-2 (ATCC Cat# CRL-1420, human pancreatic cancer cells), U87MG (ATCC Cat# HTB-14, human brain cancer cells), A549 (ATCC Cat# CCL-185, lung cancer cells), and HCT-116 (ATCC Cat# CCL-247, colon cancer cells). All cell lines were grown at 37 °C in 5% carbon dioxide. MiaPaCa-2 cells were maintained in Dulbecco's Modified Eagle Medium (Thermo Fisher Scientific, Waltham, MA; Cat# 11965) supplemented with 10% fetal bovine serum. U87MG, A549, and HCT-116 cells were maintained in RPMI 1640 medium (Thermo Fisher Scientific, Cat# 11875), supplemented with 10% fetal bovine serum. All cells were stored in liquid nitrogen and used within 20 passages after thawing.
The IncuCyte Live-Cell Analysis System was used to monitor cell proliferation[3],[33],[67]. As shown in previous publications[3],[67], this imaging system is probe-free and noninvasive, and enables continuous monitoring of cell confluence over several days. […] Cells were then treated with Mito-PEG-ATO analogs, and the cell confluency was recorded over several days in the IncuCyte Live-Cell Analysis System.
Figure S4. […] (a) Effects of Mito-PEG-ATO analogs on the proliferation of U87MG cells were monitored in the IncuCyte Live-Cell Analysis System. […]

[2] = molecular target: mitochondrial complex I (MiaPaCa-2 cells) (Homo sapiens, UniProt O75251+O75306+P03886); test: Complex I-dependent oxygen consumption in permeabilized cells, Seahorse XF-96; assay type: cell-based; conditions: 24 h, with Mito-PEG5-ATO
Sequence of mitochondrial complex I (MiaPaCa-2 cells) (O75306 34-463): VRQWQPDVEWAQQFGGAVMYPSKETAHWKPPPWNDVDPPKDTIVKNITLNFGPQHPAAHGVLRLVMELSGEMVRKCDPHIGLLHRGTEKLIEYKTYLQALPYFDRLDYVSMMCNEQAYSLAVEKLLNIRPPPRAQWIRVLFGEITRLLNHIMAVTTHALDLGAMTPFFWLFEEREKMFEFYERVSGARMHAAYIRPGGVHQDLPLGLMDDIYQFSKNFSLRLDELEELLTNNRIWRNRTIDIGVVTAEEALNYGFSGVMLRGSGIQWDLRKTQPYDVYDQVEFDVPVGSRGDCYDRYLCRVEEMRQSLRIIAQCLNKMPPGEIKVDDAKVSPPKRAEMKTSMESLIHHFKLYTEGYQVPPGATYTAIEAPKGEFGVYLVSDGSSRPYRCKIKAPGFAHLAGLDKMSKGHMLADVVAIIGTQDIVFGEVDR
Sequence of mitochondrial complex I (MiaPaCa-2 cells) (O75251 39-213): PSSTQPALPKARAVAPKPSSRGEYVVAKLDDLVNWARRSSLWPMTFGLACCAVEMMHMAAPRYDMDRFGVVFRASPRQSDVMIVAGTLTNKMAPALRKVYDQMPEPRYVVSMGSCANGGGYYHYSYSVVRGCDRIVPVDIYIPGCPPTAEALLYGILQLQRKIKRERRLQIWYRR
Sequence of mitochondrial complex I (MiaPaCa-2 cells) (P03886 whole entry): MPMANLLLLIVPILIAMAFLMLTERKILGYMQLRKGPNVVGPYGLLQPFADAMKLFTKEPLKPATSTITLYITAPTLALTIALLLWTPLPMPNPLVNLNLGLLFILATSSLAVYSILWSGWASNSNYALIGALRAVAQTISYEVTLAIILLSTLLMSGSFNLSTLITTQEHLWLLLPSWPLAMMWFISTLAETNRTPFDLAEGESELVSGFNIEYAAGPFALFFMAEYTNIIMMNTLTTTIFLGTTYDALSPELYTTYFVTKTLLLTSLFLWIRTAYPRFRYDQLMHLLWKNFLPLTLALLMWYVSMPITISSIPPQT
Description: Mitochondrial oxygen consumption was measured using the Seahorse XF-96 Extracellular Flux Analyzer (Agilent, North Billerica, MA)[3],[33],[67],[68]. To determine the intact cell mitochondrial function of MiaPaCa-2 cells in response to Mito-PEG-ATO analogs, we used the bioenergetic function assay previously described[2],[3]. […] From these measurements, indices of mitochondrial function were determined as previously described[2],[3]. For mitochondrial complex activities assays, after cells were treated with Mito-PEG-ATO analogs for 24 h, the OCR-based assessment of mitochondrial complex activities was carried out on acutely permeabilized cells in the presence of different mitochondrial substrates, i.e., pyruvate/malate for complex I and duroquinol for complex III[3],[32],[34],[69]. Rotenone, malonate, and antimycin A (Sigma-Aldrich, St. Louis, MO) were used as specific inhibitors of mitochondrial complexes I, II, and III, respectively. Briefly, cells that were intact after treatments were immediately permeabilized using the Seahorse XF Plasma Membrane Permeabilizer (Agilent). The mitochondrial complex I-induced OCR was assayed in mannitol and sucrose buffer[69] containing 10 mM pyruvate and 1.5 mM malate (substrates for complex I) and 10 mM malonate (which inhibits complex II activities). […] The IC50 values were determined as previously reported.

[3] = molecular target: mitochondrial complex III (MiaPaCa-2 cells) (Homo sapiens, UniProt P00156); test: Complex III-dependent oxygen consumption in permeabilized cells, Seahorse XF-96; assay type: cell-based
Sequence of mitochondrial complex III (MiaPaCa-2 cells) (P00156 whole entry): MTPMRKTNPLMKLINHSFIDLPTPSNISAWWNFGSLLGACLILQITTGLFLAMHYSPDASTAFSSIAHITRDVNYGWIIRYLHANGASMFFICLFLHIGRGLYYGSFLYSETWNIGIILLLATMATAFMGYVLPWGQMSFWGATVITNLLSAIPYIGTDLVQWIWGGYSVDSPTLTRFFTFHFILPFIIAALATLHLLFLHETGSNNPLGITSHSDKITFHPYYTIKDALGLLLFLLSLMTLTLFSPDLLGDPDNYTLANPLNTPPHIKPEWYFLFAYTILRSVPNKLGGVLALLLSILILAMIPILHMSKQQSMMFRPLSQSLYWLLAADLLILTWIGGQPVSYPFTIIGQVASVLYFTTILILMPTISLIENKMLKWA
Sequence of mitochondrial complex III (MiaPaCa-2 cells) (P47985 whole entry partner): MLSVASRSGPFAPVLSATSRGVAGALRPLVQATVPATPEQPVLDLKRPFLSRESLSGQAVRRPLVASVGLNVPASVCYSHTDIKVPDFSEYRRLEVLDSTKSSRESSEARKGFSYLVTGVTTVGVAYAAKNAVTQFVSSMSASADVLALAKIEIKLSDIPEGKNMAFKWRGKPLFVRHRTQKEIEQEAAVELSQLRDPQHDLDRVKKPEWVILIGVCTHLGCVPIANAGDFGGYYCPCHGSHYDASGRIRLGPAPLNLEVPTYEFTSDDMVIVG
Method in brief: (§2)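 MiaPaCa-2 cells were treated 24 h with Mito-PEG-ATO analogs, and OCR was read on a Seahorse XF-96; basal respiration was taken in intact cells. For complex I, permeabilized cells received 10 mM pyruvate, 1.5 mM malate and 10 mM malonate; for complex III, 0.5 mM duroquinol, 1 µM rotenone and 10 mM malonate, both in mannitol/sucrose buffer. IC50 values were derived from the OCR data.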

[4] = tested on: A549 cells; test: Cell proliferation (cell confluence), IncuCyte Live-Cell Analysis System; assay type: cell-based; conditions: Homo sapiens, A549, read-out: IC50, inhibition of A549 cell proliferation
Description: as §1
(§3) The IncuCyte Live-Cell Analysis System was used to monitor cell proliferation[3],[33],[67]. As shown in previous publications[3],[67], this imaging system is probe-free and noninvasive, and enables continuous monitoring of cell confluence over several days. The increase in the percentage of cell confluence was used as a surrogate marker of cell proliferation. In a 96-well plate, cells were plated at 1,000 cells per well in triplicates and left to adhere overnight. Cells were then treated with Mito-PEG-ATO analogs, and the cell confluency was recorded over several days in the IncuCyte Live-Cell Analysis System.
(§4) Figure S7. Effects of Mito-PEG-ATO analogs on the proliferation of human lung cancer (A549) cells and human colon cancer (HCT-116) cells. (A) The effects of Mito-PEG5-ATO and ATO on the proliferation of A549 (left) or HCT-116 (right) cells were monitored in the IncuCyte Live-Cell Analysis system. The IncuCyte analyzer provides real-time updates on cell confluence, based on segmentation of high definition-phase contrast images. Representative cell images were shown as a segmentation mask illustrated in brown when control cells reached 90% confluence (vertical solid black line). (B) The IC50 values for A549 (left) or HCT-116 (right) cells were determined at the point at which control cells reached ~90% confluence (vertical solid black line). Relative cell confluence (control is taken as 100%) is plotted against concentration. Dashed lines represent the fitting curves used to determine the IC50 values as indicated. Data shown are the mean±SD.

[5] = tested on: HCT-116 cells; test: as above; assay type: cell-based; conditions: Homo sapiens, HCT-116, read-out: IC50, inhibition of HCT-116 cell proliferation
Description: as §1, §3, §4

[6] = tested on: mitochondrial respiration (OCR) in intact MiaPaCa-2 cells; test: Intact cell mitochondrial respiration (basal OCR), Seahorse XF-96; assay type: cell-based, human
Method in brief: as §2

[7] = tested on: MiaPaCa-2 cells; test: Cell death by SYTOX Green staining, IncuCyte; conditions: Mito-PEG5-ATO 0.04 µM, AZD-3965 200 µM, 72 h

Cc1[nH]nc(C(F)(F)F)c1Cc1sc2c(c1C(=O)N1C[C@](C)(O)CO1)c(=O)n(C)c(=O)n2C(C)C [AZD-3965]
Inhibition of cell proliferation in combination with Mito-PEG5-ATO [1]: Synergistic inhibition
Effect on the decrease in complex I-induced oxygen consumption induced by Mito-PEG5-ATO [2]: Neither AZD-3965 nor V-9302 significantly affected
Effect on the decrease in complex III-induced oxygen consumption induced by Mito-PEG5-ATO ([3]; MiaPaCa-2 cells, with Mito-PEG5-ATO): Neither AZD-3965 nor V-9302 significantly affected

O=C1C(OCCOCCOCCOCCOCC[P+](c2ccccc2)(c2ccccc2)c2ccccc2)=C([C@H]2CC[C@H](c3ccc(Cl)cc3)CC2)C(=O)c2ccccc21.[Br-] [Mito-PEG5-ATO, [14-((3-(trans-4-(4-chlorophenyl)cyclohexyl)-1,4-dioxo-1,4-dihydronaphthalen-2-yl)oxy)-3,6,9,12-tetraoxatetradecyl]triphenylphosphonium bromide]
IC50 [4]: 0.11 µM
IC50 [5]: 0.14 µM
OCR (pmol/min/µg protein) ([6]; 0.003 µM, 24 h treatment, intact MiaPaCa-2 cells, baseline OCR, mean, n=4): 13.36 pmol/min/µg protein
OCR (basal, intact cell mitochondrial respiration) ([6]; 0.01 µM, 24 h treatment, intact MiaPaCa-2 cells, mean, n=4): 12.51 pmol/min/µg protein
OCR (basal, intact cell mitochondrial respiration) ([6]; 0.03 µM, 24 h treatment, intact MiaPaCa-2 cells, mean, n=4): 9.91 pmol/min/µg protein
OCR (basal, intact cell mitochondrial respiration) ([6]; 0.05 µM, 24 h treatment, intact MiaPaCa-2 cells, mean, n=4): 9.30 pmol/min/µg protein
OCR (basal, intact cell mitochondrial respiration) ([6]; 0.075 µM, 24 h treatment, intact MiaPaCa-2 cells, mean, n=4): 8.05 pmol/min/µg protein
OCR (basal, intact cell mitochondrial respiration) ([6]; 0.1 µM, 24 h treatment, intact MiaPaCa-2 cells, mean, n=4): 5.43 pmol/min/µg protein
OCR (basal, intact cell mitochondrial respiration) ([6]; 0.3 µM, 24 h treatment, intact MiaPaCa-2 cells, mean, n=4): 0.36 pmol/min/µg protein
OCR (basal, intact cell mitochondrial respiration) ([6]; 0.5 µM, 24 h treatment, intact MiaPaCa-2 cells, mean, n=4): 1.83 pmol/min/µg protein
OCR (basal, intact cell mitochondrial respiration) ([6]; 1 µM, 24 h treatment, intact MiaPaCa-2 cells, mean, n=4): 1.40 pmol/min/µg protein
OCR (basal, intact cell mitochondrial respiration) ([6]; 3 µM, 24 h treatment, intact MiaPaCa-2 cells, mean, n=4): 0.84 pmol/min/µg protein
OCR (basal, intact cell mitochondrial respiration) ([6]; 10 µM, 24 h treatment, intact MiaPaCa-2 cells, mean, n=4): 0.55 pmol/min/µg protein
IC50 ([6]; Homo sapiens, MIA PaCa-2, 24 h, read-out: IC50, inhibition of basal OCR in intact cells): 0.057 µM
Complex III activity (OCR, % of control) ([3]; 0.003 µM): 94.9 % of control
Complex III activity (OCR, % of control) ([3]; 0.01 µM): 94.3 % of control
Complex III activity (OCR, % of control) ([3]; 0.03 µM): 84.2 % of control
Complex III activity (OCR, % of control) ([3]; 0.05 µM): 89.9 % of control
Complex III activity (OCR, % of control) ([3]; 0.075 µM): 89.1 % of control
Complex III activity (OCR, % of control) ([3]; 0.1 µM): 87.5 % of control
Complex III activity (OCR, % of control) ([3]; 0.3 µM): 61.6 % of control
Complex III activity (OCR, % of control) ([3]; 0.5 µM): 38.4 % of control
Complex III activity (OCR, % of control) ([3]; 1 µM): 17.8 % of control
Complex III activity (OCR, % of control) ([3]; 3 µM): 8.0 % of control
IC50 ([3]; MiaPaCa-2 cells, 24 h treatment, antimycin A-inhibitable OCR, read-out: IC50, complex III-induced oxygen consumption (Complex III activity)): 0.39 µM
Cell death / cell toxicity (SYTOX Green counts) [7]: similarly low SYTOX Green counts
